# Experimental data published in US20240059711A1, “Cereblon Ligands and Uses Thereof” (REGENTS OF THE UNIVERSITY OF MICHIGAN, priority 2022, published 2024).
# Assays:
# [1] = target: GST-tagged wild-type human CRBN protein (Homo sapiens (Human), UniProt Q96SW2); assay: Cereblon binding assay (CRBN TR-FRET, Cisbio Cereblon Binding Kit); settings: XL665-labelled Thalidomide tracer, about 3 hours at room temperature
# Procedure: The binding to cereblon (CRBN) was determined using the Cereblon Binding Kit (Cisbio, #64BDCRBNPEG) following the manufacturer's instruction. Briefly, serially diluted compounds were incubated with GST-tagged wild-type human CRBN protein, XL665-labelled Thalidomide and Europium Cryptate labelled GST antibody at room temperature for about 3 hours. Time Resolved Fluorescence Resonance Energy Transfer (TR-FRET) measurements were acquired on a CALRIOstar plate reader with MARS data analysis software (BMG Labtech), with the following settings: 665/10 nm and 620/10 nm emission, 60 μs delay and 400 μs integration. The TR-FRET ratio was taken as the 665/620 nm intensity ratio.
# ER = ER (Homo sapiens (Human), UniProt P03372); assay: In-Cell Western (ICW) ER degradation assay in MCF-7 and T47D cell lines; format: cell-based; settings: ER level by In-Cell Western, 16 hrs treatment; MCF-7 and T47D described, cell line not given
# ER, sequence (P03372 whole entry): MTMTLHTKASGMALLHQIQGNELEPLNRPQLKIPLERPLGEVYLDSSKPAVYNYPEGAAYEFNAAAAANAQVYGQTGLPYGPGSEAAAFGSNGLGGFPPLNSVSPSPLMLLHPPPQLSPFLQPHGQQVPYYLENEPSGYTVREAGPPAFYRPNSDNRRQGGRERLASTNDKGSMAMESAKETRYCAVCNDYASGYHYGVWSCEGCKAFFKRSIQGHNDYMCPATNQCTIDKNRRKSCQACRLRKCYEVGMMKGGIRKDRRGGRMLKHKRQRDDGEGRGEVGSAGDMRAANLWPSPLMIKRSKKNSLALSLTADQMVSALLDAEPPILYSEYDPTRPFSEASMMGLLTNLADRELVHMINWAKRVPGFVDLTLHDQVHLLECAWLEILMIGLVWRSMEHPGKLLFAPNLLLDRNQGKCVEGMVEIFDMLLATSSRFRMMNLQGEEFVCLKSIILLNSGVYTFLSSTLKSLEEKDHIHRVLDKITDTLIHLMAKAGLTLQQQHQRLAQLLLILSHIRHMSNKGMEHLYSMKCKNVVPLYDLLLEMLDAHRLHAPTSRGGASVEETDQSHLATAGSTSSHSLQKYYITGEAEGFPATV
# Procedure: Subsequently, cells were blocked with Intercept (PBS) Blocking Buffer (Li-COR, Odyssey Blocking Buffer), and were stained with ER (1:500, Cell signaling) primary antibody for overnight at cold room. • Day 4: Remove the buffer, add IRDye 800CW Goat anti-Rabbit IgG Secondary Antibody (1:2000) and CellTag 700 Stain (1:500) in Intercept (PBS) Blocking Buffer. Finally, cell plate is placed in incubator to dry. Image and signal were captured on Odyssey® DLx Imaging System.
# In-cell western blot analysis. a. seed cells in black-sided/clear bottom 96- or 384-well plates at 40,000 or 10,000 cells/well, overnight; b. add diluted compounds (final 0.5% DMSO), 16 hours. 16 h later, remove medium, add 100 μL or 25 μL of 3.7-4.0% formaldehyde (PBS:FA=9:1), RT 20 min, no shaking; c. wash with PBS, and permeabilized with 100 μL or 25 μL/well of 1×PBS+0.1% Triton X-100 10 minutes; d. block with 100 μL or 25 μL Licor blocking buffer (Li-Cor), RT 1 h, moderate shaking; d. Add 100 μL or 25 μL of anti-ER (cs-8644, 1:500-1,000)+GAPDH (Millipore MAB374, 1:1000) in Block+0.05% Tween 20. RT 2 h, gentle shaking.
# Negative control: cells plus secondary antibodies (no primary antibodies); e. wash ×4 with PBS+0.05-0.1% Tween 20, gentle shaking; f. anti-rabbit-680 and anti-mouse-800 (both 1:1000 in LiCor block+0.05% Tween20, RT 1 h, gentle shaking, no light. LI-COR: 0.2% to reduce background; g. wash ×4 with PBS+0.05% Tween 20, gentle shaking; h. add 100 μL or 25 μL of PBS to each well and read on CLX plate reader. The relative ER percentage in treated cells were obtained by comparing the values of treated wells to those in untreated and DMSO-treated wells as 100%.
# T47D cell line = assay: Cell growth inhibition in T47D cell line; format: cell-based; settings: Homo sapiens
# GST-tagged wild-type human CRBN protein, sequence (Q96SW2 whole entry): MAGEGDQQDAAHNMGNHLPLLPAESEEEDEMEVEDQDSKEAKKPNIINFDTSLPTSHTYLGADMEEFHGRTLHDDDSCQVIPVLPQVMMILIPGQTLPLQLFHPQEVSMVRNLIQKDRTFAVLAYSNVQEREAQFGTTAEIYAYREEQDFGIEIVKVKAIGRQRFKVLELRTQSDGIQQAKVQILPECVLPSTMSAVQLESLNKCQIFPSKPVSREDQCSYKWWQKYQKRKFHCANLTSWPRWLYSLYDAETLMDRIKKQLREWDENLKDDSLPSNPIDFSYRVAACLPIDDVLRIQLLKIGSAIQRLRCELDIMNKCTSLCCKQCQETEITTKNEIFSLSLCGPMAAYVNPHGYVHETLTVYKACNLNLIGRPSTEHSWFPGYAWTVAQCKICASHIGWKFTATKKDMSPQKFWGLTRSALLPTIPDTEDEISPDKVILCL
IC50 [1] [nM],DC50 (ER) [nM],IC50 (T47D cell line) [nM],SMILES
540,,,"O=C1CC[C@H](N2Cc3c(ccc4c3O[C@@H](CO)CO4)C2=O)C(=O)N1 [Compound B6, (S)-3-((S)-2-(hydroxymethyl)-7-oxo-2,3,7,9-tetrahydro-8H-[1,4]dioxino[2,3-e]isoindol-8-yl)piperidine-2,6-dione]"
1000,,,"O=C1CCC(N2Cc3c(ccc4c3O[C@H](CO)CO4)C2=O)C(=O)N1 (stereo partly drawn) [Compound B8, 3-((R)-2-(hydroxymethyl)-7-oxo-2,3,7,9-tetrahydro-8H-[1,4]dioxino[2,3-e]isoindol-8-yl)piperidine-2,6-dione]"
3100,,,"O=C1CC[C@H](N2Cc3cc4c(cc3C2=O)OC[C@H](CO)O4)C(=O)N1 [Compound B11, (S)-3-((S)-2-(hydroxymethyl)-6-oxo-2,3,6,8-tetrahydro-7H-[1,4]dioxino[2,3-f]isoindol-7-yl)piperidine-2,6-dione]"
310,,,"O=C1CC[C@H](N2Cc3c(ccc4c3OC[C@H](CO)O4)C2=O)C(=O)N1 [Compound B4, (S)-3-((S)-3-(hydroxymethyl)-7-oxo-2,3,7,9-tetrahydro-8H-[1,4]dioxino[2,3-e]isoindol-8-yl)piperidine-2,6-dione]"
410,,,"O=C1CC[C@H](N2Cc3c(ccc4c3OCC(CO)O4)C2=O)C(=O)N1 (stereo in doubt) [Compound B2, (S)-3-((S)-3-(hydroxymethyl)-7-oxo-2,3,7,9-tetrahydro-8H-[1,4]dioxino[2,3-e]isoindol-8-yl)piperidine-2,6-dione]"
510,,,"O=C1CC[C@H](N2Cc3c(ccc4c3O[C@H](CO)CO4)C2=O)C(=O)N1 [Compound B7, (S)-3-((R)-2-(hydroxymethyl)-7-oxo-2,3,7,9-tetrahydro-8H-[1,4]dioxino[2,3-e]isoindol-8-yl)piperidine-2,6-dione]"

# Further lines, the molecule ahead of its results:
SMILES,IC50 [1] [nM],DC50 (ER) [nM],IC50 (T47D cell line) [nM]
"O=C1CCC(N2C(=O)c3cc4c(cc3C2=O)OC(CO)CO4)C(=O)N1 (stereo not shown) [Compound B15, 7-(2,6-dioxopiperidin-3-yl)-2-(hydroxymethyl)-2,3-dihydro-6H-[1,4]dioxino[2,3-f]isoindole-6,8(7H)-dione]",7890,,
"O=C1CCC(N2C(=O)c3cc4c(cc3C2=O)O[C@@H](COCc2ccccc2)CO4)C(=O)N1 (stereo partly drawn) [Compound B13, (2S)-2-((benzyloxy)methyl)-7-(2,6-dioxopiperidin-3-yl)-2,3-dihydro-6H-[1,4]dioxino[2,3-f]isoindole-6,8(7H)-dione]",3100,,
"O=C1CCC(N2Cc3cc4c(cc3C2=O)OC[C@H](CN2CCC3(CC2)CCN(c2ccc([C@@H]5c6ccc(O)cc6CC[C@@H]5c5ccccc5)cc2)CC3)O4)C(=O)N1 (stereo partly drawn) [THP-B391, 3-((S)-2-((9-(4-((1R,2S)-6-hydroxy-2-phenyl-1,2,3,4-tetrahydronaphthalen-1-yl)phenyl)-3,9-diazaspiro[5.5]undecan-3-yl)methyl)-6-oxo-2,3,6,8-tetrahydro-7H-[1,4]dioxino[2,3-f]isoindol-7-yl)piperidine-2,6-dione]",,> 100,1 to 10
O=C1CC[C@H](N2Cc3c(ccc4c3OC[C@@H](CN3CCC5(CC3)CCN(c3ccc([C@@H]6c7ccc(O)cc7CC[C@@H]6c6ccccc6)cc3)CC5)O4)C2=O)C(=O)N1 [THP-B370],,> 100,1 to 10
"O=C1CC[C@H](N2Cc3c(ccc4c3OCC(COCc3ccccc3)O4)C2=O)C(=O)N1 (stereo in doubt) [Compound B1, (S)-3-((S)-3-((benzyloxy)methyl)-7-oxo-2,3,7,9-tetrahydro-8H-[1,4]dioxino[2,3-e]isoindol-8-yl)piperidine-2,6-dione]",300,,
"O=C1CC[C@H](N2Cc3cc4c(cc3C2=O)OC[C@H](COCc2ccccc2)O4)C(=O)N1 [Compound B12, (S)-3-((S)-2-((benzyloxy)methyl)-6-oxo-2,3,6,8-tetrahydro-7H-[1,4]dioxino[2,3-f]isoindol-7-yl)piperidine-2,6-dione]",3000,,
"O=C1CCC(N2Cc3c(ccc4c3OC[C@H](COCc3ccccc3)N4)C2=O)C(=O)N1 (stereo partly drawn) [Compound B5, 3-((S)-3-((benzyloxy)methyl)-7-oxo-3,4,7,9-tetrahydro-[1,4]oxazino[2,3-e]isoindol-8(2H)-yl)piperidine-2,6-dione]",120,,
"O=C1CCC(N2C(=O)c3cc4c(cc3C2=O)O[C@@H](COCc2ccccc2)CO4)C(=O)N1 (stereo partly drawn) [Compound B14, (2S)-2-((benzyloxy)methyl)-7-(2,6-dioxopiperidin-3-yl)-2,3-dihydro-6H-[1,4]dioxino[2,3-f]isoindole-6,8(7H)-dione]",5160,,
O=C1CC[C@H](N2Cc3c(ccc4c3OC[C@H](CN3CC5(CCN(c6ccc([C@@H]7c8ccc(O)cc8CC[C@@H]7c7ccccc7)cc6)CC5)C3)O4)C2=O)C(=O)N1 [THP-B393],,,< 1
O=C1CC[C@H](N2Cc3c(ccc4c3OC[C@H](CN3CCC5(CC3)CCN(c3ccc([C@@H]6c7ccc(O)cc7CC[C@@H]6c6ccccc6)cc3)CC5)O4)C2=O)C(=O)N1 [THP-B387],,> 100,
O=C1CC[C@H](N2Cc3c(ccc4c3OC[C@@H](CN3CC5(CCN(c6ccc([C@@H]7c8ccc(O)cc8CC[C@@H]7c7ccccc7)cc6)CC5)C3)O4)C2=O)C(=O)N1 [THP-B375],,10 to 100,< 1
O=C1CC[C@H](N2Cc3c(ccc4c3OC[C@H](CN3CCC5(CC3)CCN(c3ccc([C@@H]6c7ccc(O)cc7CC[C@@H]6c6ccccc6)cc3)CC5)O4)C2=O)C(=O)N1 [THP-B392],,,1 to 10
"O=C1CC[C@H](N2Cc3c(ccc4c3OC[C@H](COCc3ccccc3)O4)C2=O)C(=O)N1 [Compound B3, (S)-3-((S)-3-((benzyloxy)methyl)-7-oxo-2,3,7,9-tetrahydro-8H-[1,4]dioxino[2,3-e]isoindol-8-yl)piperidine-2,6-dione]",120,,
